We go through two molecules from paper PMC9459403, “New inhibitors of cathepsin V impair tumor cell proliferation and elastin degradation and increase immune cell cytotoxicity” (Computational and Structural Biotechnology Journal, 2022).

Assay type in all cases: cell-based, human
In one data set the test system is MCF7 cells. Put plainly: Proliferation assay (CFSE-labeled cells, flow cytometry). The note with it: 72 h; E-64d 10 μM, pepstatin 20 μM, LHVS 10 nM, CLIK-148 1 μM. The protocol: To assess the effect of cathepsin V inhibitors on cell proliferation, MCF7 cells were fluorescently labeled with carboxyfluorescein succinimidyl ester (CFSE; ImmunoChemistry Technologies, Bloomington, MN, USA) in PBS for 15 min at room temperature according to the manufacturer’s instructions. Cells were washed with PBS, resuspended in complete medium, seeded (at 4 × 10^4 cells/well) into 24-well plates, and allowed to adhere overnight. Cells were then treated with the following inhibitors: compound 7 (10 μM), E-64d (10 μM), CLIK-148 (1 μM), LHVS (10 nM), pepstatin (20 μM), their combinations, or DMSO (0.1 %) in 500 μL of medium for 72 h at 37 °C. To prepare cells for flow cytometry, cells were detached and transferred to round-bottomed polystyrene tubes and washed with PBS. Before measurement, 7-aminoactinomycin D (7-AAD; ImmunoChemistry Technologies, Bloomington, MN, USA) was added according to the manufacturer’s instructions to exclude dead cells. Therefore, the green fluorescence arising from CFSE was monitored only for viable cells. The measurement was performed using a FACSCalibur instrument (BD Biosciences, San Jose, CA, USA).

Data set [1] concerns U-937-derived macrophages. Put plainly: Intracellular elastin-FITC degradation. The note with it: 24 h. The protocol:
To evaluate the effect of the inhibitors on the elastolytic activity of cathepsin V, we assessed the intracellular degradation of elastin-FITC, a soluble bovine neck ligament elastin that is heavily labeled with FITC such that the fluorescence of the conjugate is quenched. Upon proteolysis, fluorescence is recovered and can be detected. U-937 cells, differentiated into macrophage-like cells, were seeded (at 1 × 10^5 cells/well) into 24-well plates with 500 μL of medium supplemented with 50 nM PMA. Inhibitors or DMSO (0.1 %) and elastin-FITC (10 μg/mL; AnaSpec, Fermont, CA, USA) were added to the medium and incubated for 24 h at 37 °C. Cells were detached and washed with PBS, and propidium iodide (BD Bioscience) was added to exclude dead cells. Therefore, green fluorescence arising from elastin-FITC degradation was monitored only for viable cells. The measurement was performed using a FACSCalibur instrument (BD Biosciences).

Data set [2] has as its system TALL-104 effector cells on target K-562 cells. Put plainly: Calcein AM release assay (cytotoxicity). The note with it: effector cells treated 10 µM, 6 h. The protocol: (§1) Effector cells (NK-92 or TALL-104; 1 × 10^6/ml) were treated with E-64d (10 µM) or compound 7 (10 µM) for 6 h. NK-92 cells were pre-treated with 1000 IU IL2/mL overnight prior to the addition of inhibitors. Effector cells were added to a 96-well U-bottom plate to achieve a selected effector-to-target ratio (E:T). Target K-562 cells were labelled with 15 µM Calcein-AM (Sigma) in serum-free RPMI 1640 medium for 30 min at 37 °C. Cells were then washed twice and resuspended in complete RPMI 1640 medium. Target cells (n = 5000) were added to the effectors. The plate was centrifuged at 200 × g for 1 min and incubated at 37 °C and 5 % CO2 for 4 h. After incubation, the plate was centrifuged at 700 × g for 5 min. The supernatant (50 µL) was transferred to a new microtiter plate to measure the fluorescence of the released Calcein-AM with a Tecan M1000 microtiter plate reader using 496 nm excitation and 516 nm emission filters. The percentage of cytotoxicity was calculated as follows: 100(test release-spontaneous release)/(total release-spontaneous release). Spontaneous release was measured in wells containing only target cells. For total release, 2 % Triton X-100 was added to the wells to achieve lysis of target cells. Lytic units (LU) were calculated using the inverse of the number of effector cells needed to lyse 30 % of the target cells multiplied by 100.

Data set [3] deals with NK-92 effector cells on target K-562 cells. Kind of data set: Calcein AM release assay (cytotoxicity). To be noted: effector cells treated 10 µM, 6 h. The protocol:
as §1

The subject of data set [4] is cystatin F in U-937 cells. Put plainly: Western blot of cystatin F dimer-to-monomer ratio. To be noted: U-937 cell lysates, 6 h treatment, 10 and 20 μM, vs control. The protocol: Cells were treated with E-64d or compound 7 (both at 10 µM or 20 µM) for 6 h. After treatment, whole-cell lysates were prepared in RIPA buffer supplemented with cOmplete™ Protease Inhibitor Cocktail (Roche, Basel, Switzerland) and centrifuged at 16 000 × g for 20 min at 4 °C. Total protein concentration was determined using the DC assay (Biorad, Hercules, CA, USA). Proteins were separated by non-reducing SDS-PAGE and transferred to a nitrocellulose membrane using the TransBlot Turbo System (Biorad). After blocking, the membranes were incubated with primary antibodies overnight at 4 °C and with secondary antibodies for 1 h at room temperature. Bands were visualized using Clarity Max Western ECL substrate (Biorad), and protein loading was checked using Stain Free technology (Biorad). Images were acquired using the ChemiDoc ML Imaging System (Biorad), and quantification analysis was performed using Image Lab software (Biorad).
The following primary antibodies were used: rabbit anti-cystatin F (1:375, HPA040442, Sigma), goat anti-cathepsin V (1:200, AF 1080, R&D, USA), and mouse anti-GAPDH (1:3000, 10494-I-AP, Proteintech, USA). […]
Background: Immunoblotting shows a protein as a band on a membrane.

In the case of `CN(C)C(=O)[C@H](Cc1ccccc1)NC(=O)[C@H]1O[C@@H]1C(=O)NCCc1ccccn1` [CLIK-148, reference compound], in the data set with MCF7 cells, the “effect on cell proliferation (relative CFSE fluorescence intensity vs DMSO)” value is “no effects on cell proliferation”. Besides, the “effect on degradation of elastin-FITC compared to control cells” value in data set [1] (CLIK-148 1 μM, LHVS 10 nM) is “did not decrease”.
As for `CCOC(=O)[C@H]1O[C@@H]1C(=O)N[C@@H](CC(C)C)C(=O)NCCC(C)C` [Compound E-64d, reference compound], in data set [2], the “cytotoxicity of TALL-104 cells (target cell killing)” value is “decreased cytotoxic function”. Further, the “cytotoxicity of NK-92 cells (target cell killing)” value in data set [3] is given as “decreased cytotoxic function”. In addition, the “cystatin F dimer-to-monomer ratio” value in data set [4] is listed as “increased”. In addition, in the data set with MCF7 cells, the “effect on cell proliferation (relative CFSE fluorescence intensity vs DMSO)” value was “no effects on cell proliferation”. For the same molecule, the “decrease of elastin-FITC degradation” value in data set [1] (10 μM, vs DMSO) is given as 18.4 ± 7.0%.
